Test results: patent US7906515B2, “Cancer treatment with topoisomerase-II inhibitor, a bis-dioxypiperazine and radiation” (Topotarget A/S, priority 2004, dated 2011)
“Also recorded” adds a separate entry of the source. Read-outs that look alike come from different tables or passages of the source.

Assays:
[1] = tested on: Ehrlich Ascites tumour cells; experiment: Clonogenic survival in soft agar after drug with or without concurrent radiotherapy; conditions: for Cell-kill interaction of etoposide with radiotherapy: increasing concentrations of etoposide, 150 minutes exposure
topoisomerase-II = conditions: in vitro, cited from earlier work
[2] = tested on: Ehrlich Ascites tumour cells; experiment: Treatment efficacy: survival of mice with intracerebrally implanted Ehrlich Ascites tumour; assay type: in vivo, B6D2F1 female mice
Procedure: B6D2F1 female mice from Taconic M&B (Ry, Denmark) were housed in cages of 9 with free access to water and Altromi laboratory diet from Brogaarden (Gentofte, DK). They weighed 19-22 grams at inclusion in protocol. Animals that deteriorated clinically during the experiment were euthanised, and the experiments were approved by the Danish Animal Experimentation Inspectorate.
A total of 15×10^4 Ehrlich Ascites tumour cells in 30 uL saline were implanted into the right temporal hemisphere during short CO2 anaesthesia on day 0 and treated on day 3. Treatment was scheduled as follows: dexrazoxane at t=0, etoposide at t=20 minutes and radiation treatment at t=50 minutes. Before the radiotherapy procedure a light anaesthesia was administered, to achieve compliance.
This way we obtained a simple and reliable method of comparison.
Efficacy of chemoradiotherapy compared to radiotherapy alone was calculated as: […]
Median survival after chemotherapy compared to radiotherapy alone was calculated as:
The absolute numeric difference in median survival time after chemotherapy alone compared to radiotherapy alone was simply calculated as: Difference in survival (days)=MS radiotherapy−MS chemotherapy Eq. 3)
Survival times within the separate experimental treatment groups were compiled, and presented in Kaplan-Meier plots. P-values from Logrank tests comparing survival in experimental groups compared to radiotherapy alone are shown.
The dose-rate was 4.7 Gy/minute.
Dexrazoxane (Zinecard®) was obtained from Pharmacia (Kalamazoo, Mich.) and further diluted in Ringer-lactate. Etoposide (Vepesid™) was obtained as a ready to administer liquid solution from Pharmacia A/S (Copenhagen, DK) and diluted to final concentration in isotonic saline. 3H-etoposide was obtained from Moravek (Calif., USA) and kept at −20° C. All drugs were administered by the intra-peritoneal (ip.) route.

[3] = Etoposide area under the curve after intra-peritoneal treatment; assay type: in vivo; conditions: own experiments, data unpublished
Procedure: Following intra-peritoneal treatment with etoposide, approximately 95% of the total etoposide area under the curve is covered within 150 minutes after administration (own experiments, data unpublished). […] Ehrlich Ascites tumour cells were incubated in etoposide or dexrazoxane for 30 minutes before irradiation, and then allowed further 120 minutes post-irradiation drug incubation, resulting in a total duration of exposure of 150 minutes.

[4] = Brain and tumour uptake using tritiated etoposide; assay type: in vivo, mice; conditions: ten minutes after ip administration
Procedure: Tritium-labelled etoposide was mixed with either “cold” etoposide 9.0 mg/ml, “cold” etoposide 0.9 mg/ml or isotonic saline, all in a final volume of 200 uL. Ten minutes after the administration mice were anaesthetized by CO2, blood was collected and plasma was separated. […] Tumour and unaffected contra-lateral brain were removed under a surgical microscope, weighed and sonicated. Activity was measured in a liquid scintillation counter from Packard (US), and counts/gram in brain and tumour was compared to concurrent plasma values.
(§1) Experiments with Evans blue dye, Lissamine Green and 3H-etoposide were done on day 3, with preparations as described for treatment efficacy experiments.

[5] = Histological evaluation of the blood brain barrier and blood tumour barrier by dye staining; assay type: in vivo; conditions: day 3 after tumour implantation; 5 mice per dye
Procedure: Following anaesthesia by hypnorm/dormicum 25 uL of Evans Blue Dye or 80 uL of Lissamine Green was administered by a tail-vein. After allowing the dye to circulate, animals were perfused transcardially with a 4% formalin solution for 5 minutes. The brain was kept in formalin 4%, and […] thick slices were cut on a vibratome and evaluated visually for staining. A check for positive stain of organs was performed before inclusion of the animal in the evaluation of staining of the brain and tumour. Evans Blue Dye and Lissamine Green were obtained from Sigma-Aldrich (Vallensbaek, DK) and prepared fresh as a 2% solution in isotonic saline.
as §1

topoisomerase II = conditions: cited from earlier work
[6] = tested on: brain metastasis from SCLC; conditions: cited from earlier work
[7] = concurrent teniposide and WBRT, phase III trial

Q: Which “Toxicity of drug alone in clonogenic survival” value ([1]; dexrazoxane alone) does the source give for `C[C@@H](CN1CC(=O)NC(=O)C1)N1CC(=O)NC(=O)C1` [dexrazoxane, (S)-(+)-1,2-Bis(3,5-dioxopiperazin-1-yl)propane] here?
A: non-toxic

Q: And the “Radio-enhancing effect in clonogenic survival” value ([1]; fixed doses of dexrazoxane 25 μM or 125 μM, increasing radiotherapy doses)?
A: no radio-enhancing effect; also recorded: no effect at all

Q: And the “Effect on toxicity from etoposide in clonogenic assay” value (topoisomerase-II)?
A: antagonises toxicity from etoposide

Q: What about the “Formation of DNA strand breaks induced by topoisomerase-II poisons” value (topoisomerase-II) of the same molecule?
A: inhibits the formation of DNA strand breaks

Q: What about the “Survival after drug alone” value ([2]; dexrazoxane 125 mg/kg alone) of the same molecule?
A: increased survival a little

Q: What about the “Effect on survival in combination with radiotherapy” value ([2]; dexrazoxane 125 mg/kg and concurrent 10 Gy) of the same molecule?
A: neither dexrazoxane 125 mg/kg (FIG. 1D) nor solvent affected survival in combination with radiotherapy

Q: What about the “Difference in survival, days lost from ineffective treatment (Eq. 3)” value ([2]; dexrazoxane 125 mg/kg ip alone, compared to radiotherapy) of the same molecule?
A: 5 days

Q: With `COc1cc([C@@H]2c3cc4c(cc3[C@@H](O[C@@H]3O[C@@H]5CO[C@@H](C)O[C@H]5[C@H](O)[C@H]3O)[C@H]3COC(=O)[C@H]23)OCO4)cc(OC)c1O` [etoposide, 9-[[4,6-O-(1R)-ethylidene-β-D-glucopyranosyl]oxy]-5,8,8a,9-tetrahydro-5-(4-hydroxy-3,5-dimethoxyphenyl)-(5R,5aR,8aR,9S)-furo[3′,4′:6,7]naphtho[2,3-d]-1,3-dioxol-6(5aH)-one] as the molecule, how does the “Share of total etoposide area under the curve covered within 150 minutes after administration” value [3] read?
A: approximately 95%

Q: And the “Interaction by combination index (Chou and Talalay)” value ([1]; increasing concentrations of etoposide with radiotherapy)?
A: synergism

Q: What about the “Cell-kill interaction of etoposide with radiotherapy” value ([1]; 1.25 Gy) of the same molecule?
A: did not result in an increased cell-kill

Q: What about the “Cell-kill interaction of etoposide with radiotherapy” value ([1]; 7.5 Gy) of the same molecule?
A: synergistic cell-kill; also recorded: supra-additive cell-kill

Q: And the “Interaction by combination index (Chou and Talalay)” value ([1]; lowest concentrations of etoposide with radiotherapy)?
A: antagonistic

Q: What about the “Cell-kill of etoposide in combination with radiotherapy” value (topoisomerase-II; literature) of the same molecule?
A: synergistic cell-kill

Q: And the “Influence of dose, vehicle or dexrazoxane pre-treatment on uptake in tumour” value [4]?
A: no influence on uptake in tumour

Q: What about the “Tumour drug uptake compared to brain” value [4] of the same molecule?
A: higher than in brain, but statistically insignificant, except after treatment with the low dose of etoposide

Q: And the “Brain/plasma ratio of 3H-etoposide” value ([4]; etoposide dose-escalation or dexrazoxane 125 mg/kg pre-treatment)?
A: Neither etoposide dose-escalation nor pre-treatment with dexrazoxane altered the brain/plasma ratio

Q: And the “Survival after drug alone” value ([2]; etoposide 34 mg/kg alone)?
A: increased survival

Q: And the “Effect on survival from radiotherapy” value ([2]; etoposide 34 mg/kg and concurrent 10 Gy)?
A: did not enhance survival from radiotherapy

Q: Which “Colouration of brain or tumour tissue after tail-vein administration” value [5] does the source give for `Cc1cc(-c2ccc(/N=N/c3ccc4c(S(=O)(=O)[O-])cc(S(=O)(=O)[O-])c(N)c4c3O)c(C)c2)ccc1/N=N/c1ccc2c(S(=O)(=O)[O-])cc(S(=O)(=O)[O-])c(N)c2c1O.[Na+].[Na+].[Na+].[Na+]` [Evans blue dye] here?
A: no colouration of brain or tumour tissue

Q: With `CN(C)c1ccc(C(=C2C=CC(=[N+](C)C)C=C2)c2c(O)c(S(=O)(=O)[O-])cc3cc(S(=O)(=O)[O-])ccc23)cc1.[Na+]` [Lissamine Green] as the molecule, how does the “Colouration of brain or tumour tissue after tail-vein administration” value [5] read?
A: no colouration of brain or tumour tissue

Q: Which “Potency relative to VP-16” value (topoisomerase II) does the source give for `COc1cc([C@@H]2c3cc4c(cc3[C@@H](O[C@@H]3O[C@@H]5CO[C@@H](c6cccs6)O[C@H]5[C@H](O)[C@H]3O)[C@H]3COC(=O)[C@H]23)OCO4)cc(OC)c1O` [teniposide] here?
A: about 10 fold

Q: What about the “Time to cerebral progression” value ([6]; concurrent teniposide and WBRT versus teniposide alone) of the same molecule?
A: significantly increased

Q: And the Median survival [6, 7]?
A: 3.5 months

Q: And the Response rate [6, 7]?
A: 57%

Q: And the Response rate ([6]; teniposide 150 mg/m^2 day 1, 3 and 5, alone, phase II)?
A: 33%

Q: And the Median survival ([6]; teniposide alone, phase III trial)?
A: 3.2 months
